Laboratory results as given in article PMC8119466, “A screen of FDA-approved drugs identifies inhibitors of protein tyrosine phosphatase 4A3 (PTP4A3 or PRL-3)” (Scientific Reports, 2021).
Like-named read-outs stand apart in the source and are kept apart here.

What was measured:
Type in all cases: biochemical
recombinant PRL-1 = molecular target: T1, recombinant PRL-1 (Homo sapiens, UniProt Q93096); assay: In vitro phosphatase assay (DiFMUP hydrolysis), PRL-1; note: test concentration or dose not given here
T1 construct: 6xHis (N, cleaved yes); made in house; host or cells: E. coli One Shot BL21 Star
T1 sequence (Q93096 1-173): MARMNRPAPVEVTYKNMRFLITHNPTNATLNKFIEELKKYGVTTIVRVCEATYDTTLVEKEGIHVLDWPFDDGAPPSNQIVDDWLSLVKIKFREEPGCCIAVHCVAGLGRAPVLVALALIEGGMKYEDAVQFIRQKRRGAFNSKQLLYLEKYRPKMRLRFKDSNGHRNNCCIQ

recombinant PRL-2 = molecular target: T2, recombinant PRL-2 (Homo sapiens, UniProt Q12974); assay: In vitro phosphatase assay (DiFMUP hydrolysis), PRL-2;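 note: PRL-2 activity read as DiFMUP hydrolysis after 20 min at room temperature with drug, enzyme first pre-reduced at 4 °C for 20 min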
T2 construct: 6xHis (N, cleaved yes); made in house; host or cells: E. coli One Shot BL21 Star
T2 sequence (Q12974 1-167): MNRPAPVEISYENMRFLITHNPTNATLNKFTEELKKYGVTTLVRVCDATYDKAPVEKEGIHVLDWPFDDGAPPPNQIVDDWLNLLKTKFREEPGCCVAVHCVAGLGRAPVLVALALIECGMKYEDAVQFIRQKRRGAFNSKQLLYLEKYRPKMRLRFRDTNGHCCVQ

recombinant PRL-3 = molecular target: T3, recombinant PRL-3 (Homo sapiens, UniProt O75365); assay: In vitro phosphatase assay (DiFMUP hydrolysis), PRL-3; note: test concentration or dose not given here
T3 construct: 6xHis (N, cleaved yes); made in house; host or cells: E. coli One Shot BL21 Star
T3 sequence (O75365 whole entry): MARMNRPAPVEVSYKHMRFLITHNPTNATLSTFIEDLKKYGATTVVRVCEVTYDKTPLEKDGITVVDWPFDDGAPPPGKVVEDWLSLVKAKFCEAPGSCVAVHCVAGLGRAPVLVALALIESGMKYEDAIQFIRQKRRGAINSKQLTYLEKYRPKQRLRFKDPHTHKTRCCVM

[1] = FDA-approved drug screen, compared to DMSO
[2] = FDA-approved drug screen, activity compared to DMSO

O[C@H]1[C@H](O)[C@@H](O)[C@H](O)[C@@H](O)[C@H]1O [i-Inositol]
% Phosphatase Activity (compared to DMSO) PRL-1 (recombinant PRL-1; [1]): 94% | % Phosphatase Activity (compared to DMSO) PRL-2 (recombinant PRL-2; [1]): 112% | % Phosphatase Activity (compared to DMSO) PRL-3 (recombinant PRL-3; [1]): 87%

Nc1ccc(S(=O)(=O)Nc2ccccn2)cc1 [Sulfapyridine]
% Phosphatase Activity (compared to DMSO) PRL-1 (recombinant PRL-1; [2]): 106% | % Phosphatase Activity (compared to DMSO) PRL-2 (recombinant PRL-2; [2]): 113% | % Phosphatase Activity (compared to DMSO) PRL-3 (recombinant PRL-3; [2]): 84%

COCCCOc1ccnc(C[S+]([O-])c2nc3ccccc3[n-]2)c1C.[Na+] (stereo not drawn) [Rebeprazole sodium]
% Phosphatase Activity (compared to DMSO) PRL-1 (recombinant PRL-1; [1]): 97% | % Phosphatase Activity (compared to DMSO) PRL-2 (recombinant PRL-2; [1]): 99% | % Phosphatase Activity (compared to DMSO) PRL-3 (recombinant PRL-3; [1]): 78%

COc1cc2c(cc1OC)C1CC(=O)C(CC(C)C)CN1CC2 (stereo not drawn) [Tetrabenazine (Xenazine)]
% Phosphatase Activity (compared to DMSO) PRL-1 (recombinant PRL-1; [2]): 81% | % Phosphatase Activity (compared to DMSO) PRL-2 (recombinant PRL-2; [2]): 89% | % Phosphatase Activity (compared to DMSO) PRL-3 (recombinant PRL-3; [2]): 84%

Cc1ccc(Nc2nccc(N(C)c3ccc4c(C)n(C)nc4c3)n2)cc1S(N)(=O)=O.Cl [Pazopanib HCl]
% Phosphatase Activity (compared to DMSO) PRL-1 (recombinant PRL-1; [1]): 86% | % Phosphatase Activity (compared to DMSO) PRL-2 (recombinant PRL-2; [1]): 83% | % Phosphatase Activity (compared to DMSO) PRL-3 (recombinant PRL-3; [1]): 82%

Cc1ccc(S(=O)(=O)NC(=O)NN2CC3CCCC3C2)cc1 (stereo not drawn) [Gliclazide]
% Phosphatase Activity (compared to DMSO) PRL-1 (recombinant PRL-1; [1]): 112% | % Phosphatase Activity (compared to DMSO) PRL-2 (recombinant PRL-2; [1]): 138% | % Phosphatase Activity (compared to DMSO) PRL-3 (recombinant PRL-3; [1]): 94%

C=C(c1ccc(C(=O)O)cc1)c1cc2c(cc1C)C(C)(C)CCC2(C)C [Bexarotene]
% Phosphatase Activity (compared to DMSO) PRL-1 (recombinant PRL-1; [1]): 81% | % Phosphatase Activity (compared to DMSO) PRL-2 (recombinant PRL-2; [1]): 89% | % Phosphatase Activity (compared to DMSO) PRL-3 (recombinant PRL-3; [1]): 58%

O=C(O)c1cc(-c2ccc(F)cc2F)ccc1O [Diflunisal]
% Phosphatase Activity (compared to DMSO) PRL-1 (recombinant PRL-1; [1]): 91% | % Phosphatase Activity (compared to DMSO) PRL-2 (recombinant PRL-2; [1]): 87% | % Phosphatase Activity (compared to DMSO) PRL-3 (recombinant PRL-3; [1]): 85%

Cc1cc(/C=C/C#N)cc(C)c1Nc1ccnc(Nc2ccc(C#N)cc2)n1 [Rilpivirine]
% Phosphatase Activity (compared to DMSO) PRL-1 (recombinant PRL-1; [1]): 139% | % Phosphatase Activity (compared to DMSO) PRL-2 (recombinant PRL-2; [1]): 116% | % Phosphatase Activity (compared to DMSO) PRL-3 (recombinant PRL-3; [1]): 136%

C[C@]12CCC(=O)C(O)=C1CC[C@@H]1[C@@H]2CC[C@]2(C)C(=O)CC[C@@H]12 [Formestane]
% Phosphatase Activity (compared to DMSO) PRL-1 (recombinant PRL-1): 102% | % Phosphatase Activity (compared to DMSO) PRL-2 (recombinant PRL-2): 123% | % Phosphatase Activity (compared to DMSO) PRL-3 (recombinant PRL-3): 85%

CCCCCCCCOc1ccccc1C(=O)Nc1ccc(C(=O)OCC[N+](C)(CC)CC)cc1 [Otilonium Bromide]
% Phosphatase Activity (compared to DMSO) PRL-1 (recombinant PRL-1; [1]): 102% | % Phosphatase Activity (compared to DMSO) PRL-2 (recombinant PRL-2; [1]): 105% | % Phosphatase Activity (compared to DMSO) PRL-3 (recombinant PRL-3; [1]): 111%

Cc1cn([C@H]2C=C[C@@H](CO)O2)c(=O)[nH]c1=O [Stavudine (d4T)]
% Phosphatase Activity (compared to DMSO) PRL-1 (recombinant PRL-1; [2]): 104% | % Phosphatase Activity (compared to DMSO) PRL-2 (recombinant PRL-2; [2]): 90% | % Phosphatase Activity (compared to DMSO) PRL-3 (recombinant PRL-3; [2]): 88%

CCn1c(=O)c(-c2cc[nH]n2)cc2c(C)nc(N)nc21 [Voxtalisib (XL765, SAR245409)]
% Phosphatase Activity (compared to DMSO) PRL-1 (recombinant PRL-1; [2]): 7254% | % Phosphatase Activity (compared to DMSO) PRL-2 (recombinant PRL-2; [2]): 5267% | % Phosphatase Activity (compared to DMSO) PRL-3 (recombinant PRL-3; [2]): 4492%

Nc1nc(Cl)nc2c1ncn2[C@H]1C[C@H](O)[C@@H](CO)O1 [Cladribine]
% Phosphatase Activity (compared to DMSO) PRL-1 (recombinant PRL-1; [1]): 98% | % Phosphatase Activity (compared to DMSO) PRL-2 (recombinant PRL-2; [1]): 93% | % Phosphatase Activity (compared to DMSO) PRL-3 (recombinant PRL-3; [1]): 82%

COc1ccc2c(c1)c(CC(=O)OCC(=O)O)c(C)n2C(=O)c1ccc(Cl)cc1 [Acemetacin]
% Phosphatase Activity (compared to DMSO) PRL-1 (recombinant PRL-1; [1]): 93% | % Phosphatase Activity (compared to DMSO) PRL-2 (recombinant PRL-2; [1]): 121% | % Phosphatase Activity (compared to DMSO) PRL-3 (recombinant PRL-3; [1]): 94%
